How the values were obtained:
[1] = biological target: T1, human estrogen receptor α (Homo sapiens, UniProt P03372); test: CHO-ERα bioassay: luciferase transactivation, estrogenic and anti-estrogenic activity; assay type: cell-based; conditions: agonist or antagonist in recombinant CHO cells with hERα, rat oxytocin promoter, luciferase reporter; standard Org 2317 (estradiol)
T1 construct: expressed in transfected cells; host or cells: CHO cells (CHO-ERRO 2B1-1E9), stably co-transfected with rat oxytocin promoter-luciferase reporter
T1 sequence (P03372 1-595): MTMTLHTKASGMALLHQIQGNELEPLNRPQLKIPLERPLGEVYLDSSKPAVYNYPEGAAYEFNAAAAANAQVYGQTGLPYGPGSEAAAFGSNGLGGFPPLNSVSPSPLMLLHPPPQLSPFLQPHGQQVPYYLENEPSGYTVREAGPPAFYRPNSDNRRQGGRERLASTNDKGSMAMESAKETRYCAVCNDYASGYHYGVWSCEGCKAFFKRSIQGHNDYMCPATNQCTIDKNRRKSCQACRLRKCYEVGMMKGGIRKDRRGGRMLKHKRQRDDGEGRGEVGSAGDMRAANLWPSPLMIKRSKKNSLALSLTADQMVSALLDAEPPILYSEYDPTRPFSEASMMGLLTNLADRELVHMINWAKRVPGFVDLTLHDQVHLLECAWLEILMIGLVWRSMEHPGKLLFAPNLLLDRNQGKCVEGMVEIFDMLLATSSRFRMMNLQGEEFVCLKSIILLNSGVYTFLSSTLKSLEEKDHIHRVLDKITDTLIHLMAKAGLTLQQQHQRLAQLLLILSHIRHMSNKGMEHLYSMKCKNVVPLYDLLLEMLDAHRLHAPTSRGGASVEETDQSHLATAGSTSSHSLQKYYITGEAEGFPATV
Protocol: (§1) Test medium: Intact recombinant CHO cells stably co-transfected with the rat oxytocin promoter and the luciferase reporter gene and either the human estrogen receptor β or the human estrogen receptor α. Both cell lines have been produced within the Department of Biotechnology and Biochemistry (BBC) (N. V. Organon) and are known under the name CHO-ERRO 2B1-1E9 for CHO-ERα and CHO-ERβ RO LUC for CHO-ERβ. The estrogenic activity of compounds is determined in an in vitro bioassay (CHO-ERα) with recombinant Chinese hamster ovary (CHO) cells stably co-transfected with the human estrogen α (hERα), the rat oxytocin promoter (RO) and the luciferase reporter gene (LUC). The estrogenic activity (potency ratio) of a test compound to promote the transactivation of the enzyme luciferase mediated via the estrogen receptor α is compared with the standard estrogen Org 2317 (estradiol 1,3,5 (10)-estratriene-3,17β-diol). The estrogenic activity (potency ratio) of a test compound to promote the transactivation of the enzyme luciferase mediated via the estrogen receptor β is determined in the same fashion but using recombinant Chinese hamster ovary (CHO) cells stably co-transfected with the human estrogen β (hERβ) (bioassay CHO-ERβ). The anti-estrogenic activity of compounds is determined in the same bioassays (CHO-ERα and CHO-ERβ), but now the anti-ERα and anti-ERβ activity (potency ratio) of a test compound to inhibit the transactivation of the enzyme luciferase mediated via ERα or ERβ by Org 2317 (estradiol 1,3,5 (10)-estratriene-3,17β-diol) is measured.

[2] = biological target: T2, human estrogen receptor β (Homo sapiens, UniProt Q92731); test: CHO-ERβ bioassay: luciferase transactivation, estrogenic and anti-estrogenic activity; assay type: cell-based; conditions: agonist or antagonist in recombinant CHO cells with hERβ, rat oxytocin promoter, luciferase reporter; standard Org 2317 (estradiol)
T2 construct: expressed in transfected cells; host or cells: CHO cells (CHO-ERβ RO LUC), stably co-transfected with rat oxytocin promoter-luciferase reporter
Protocol: as §1

T2 sequence (Q92731 whole entry): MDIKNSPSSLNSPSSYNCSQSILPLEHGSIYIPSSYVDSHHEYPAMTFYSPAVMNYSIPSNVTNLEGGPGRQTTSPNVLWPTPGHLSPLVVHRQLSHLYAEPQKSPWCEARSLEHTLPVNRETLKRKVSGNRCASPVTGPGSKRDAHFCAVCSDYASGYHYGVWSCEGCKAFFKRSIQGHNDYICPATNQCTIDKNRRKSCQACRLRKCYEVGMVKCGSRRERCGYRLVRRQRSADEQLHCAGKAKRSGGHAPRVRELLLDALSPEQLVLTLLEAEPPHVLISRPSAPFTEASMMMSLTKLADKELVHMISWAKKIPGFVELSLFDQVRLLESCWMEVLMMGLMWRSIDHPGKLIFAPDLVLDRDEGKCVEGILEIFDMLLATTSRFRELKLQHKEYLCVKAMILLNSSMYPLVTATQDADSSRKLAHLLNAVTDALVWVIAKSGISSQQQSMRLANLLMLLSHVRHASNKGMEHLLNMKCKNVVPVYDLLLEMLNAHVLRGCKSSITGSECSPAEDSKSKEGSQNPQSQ

| Structure (SMILES) | ER-α [1] | ER-β [2] |
| --- | --- | --- |
| C=CC[C@H]1C[C@]2(C)[C@@H](O)CC[C@H]2[C@@H]2CCc3cc(O)ccc3[C@@H]12 [Compound 1] | agonist | agonist |
| C=CCC[C@H]1C[C@]2(C)[C@@H](O)CC[C@H]2[C@@H]2CCc3cc(O)ccc3[C@@H]12 [Compound 2] | agonist | agonist |
| C=CCCC[C@H]1C[C@]2(C)[C@@H](O)CC[C@H]2[C@@H]2CCc3cc(O)ccc3[C@@H]12 [Compound 3] | agonist | antagonist |
| C#CCC[C@H]1C[C@]2(C)[C@@H](O)CC[C@H]2[C@@H]2CCc3cc(O)ccc3[C@@H]12 [Compound 4] | agonist | agonist |
| CC#CCC[C@H]1C[C@]2(C)[C@@H](O)CC[C@H]2[C@@H]2CCc3cc(O)ccc3C12 (stereo partly shown) [Compound 5] | agonist | antagonist |
| C#CCCC[C@H]1C[C@]2(C)[C@@H](O)CC[C@H]2[C@@H]2CCc3cc(O)ccc3[C@@H]12 [Compound 6] | agonist | antagonist |
| C[C@]12C[C@H](CC=C3CC3)[C@@H]3c4ccc(O)cc4CC[C@H]3[C@@H]1CC[C@@H]2O [Compound 7] | agonist | agonist |
| C[C@]12C[C@H](CCC=C3CC3)[C@@H]3c4ccc(O)cc4CC[C@H]3[C@@H]1CC[C@@H]2O [Compound 8] | agonist | antagonist |
| CCC[C@H]1C[C@]2(C)[C@@H](O)CC[C@H]2[C@@H]2CCc3cc(O)ccc3[C@@H]12 [Compound 9] | agonist | agonist |
| CCCC[C@H]1C[C@]2(C)[C@@H](O)CC[C@H]2[C@@H]2CCc3cc(O)ccc3[C@@H]12 [Compound 10] | agonist | agonist |
| CCCCC[C@H]1C[C@]2(C)[C@@H](O)CC[C@H]2[C@@H]2CCc3cc(O)ccc3[C@@H]12 [Compound 11] | agonist | antagonist |
